Test results taken from publication PMC9368981, “The γ-Core Motif Peptides of AMPs from Grasses Display Inhibitory Activity against Human and Plant Pathogens” (International Journal of Molecular Sciences, 2022).
Where a SMILES comes first, the peptide text is derived from it.

Tests used:
[1] = test system: F. verticillioides VKM F-670; format: cell-based, Fusarium verticillioides
Protocol: (§1) The antimicrobial activity of synthetic peptides was tested against a panel of human and plant pathogens. Among them were the yeasts Candida albicans VKM Y-2994 and Cryptococcus neoformans VKM Y-2755, the plant pathogenic bacteria Clavibacter michiganensis subsp. michiganensis VKM Ac-1403, Pseudomonas savastanoi pv. savastanoi VKM B-1546 and Pectobacterium carotovorum subsp. carotovorum VKM B-1247, and four Fusarium species (F. oxysporum VKM F-137, F. culmorum VKM F-2303, F. solani VKM F-142 and F. verticillioides VKM F-670), which cause diseases in plants and humans. The antimicrobial activity was first measured at the peptide concentration of 300 µM (Figure 3).
(§2) The antimicrobial activity of synthetic peptides was tested against the yeasts Candida albicans VKM Y-2994 and Cryptococcus neoformans VKM Y-2755, the bacteria Pseudomonas savastanoi pv. savastanoi VKM B-1546, Pectobacterium carotovorum subsp. carotovorum VKM B-1247 and Clavibacter michiganensis subsp. michiganensis VKM Ac-1403, and four Fusarium species: F. culmorum VKM F-2303, F. oxysporum VKM F-137, F. solani VKM F-142 and F. verticillioides VKM F-670. All cultures were obtained from the All-Russian Collection of Microorganisms (VKM). The details of the production and storage of cultures of microorganisms used in this study are described at the VKM Home page. Antimicrobial assays were accomplished according to the procedure described earlier. In short, yeasts were grown on the YPD-P medium and the bacteria P. carotovorum and Cl. michiganensis were cultured on a modified YPD-P medium. The Fusarium fungi were grown on potato dextrose agar at 25 °C for 7–8 days, and spores were washed off from the surface of the mycelia with sterile, distilled water. The antimicrobial activity of the peptides was measured in immunoassay microtiter plates according to the protocol of Broekaert et al.. With yeasts and bacteria, each well contained 10 µL of the tested peptide solution (final concentrations of 10–300 µM) in water, 80 µL of the medium and 10 µL of the microbial suspension. The plates were incubated at 30 °C for 24 h, and the absorbance of the suspension was measured on an Efos 9305 spectrophotometer (Sapphire, Moscow, Russia) at 594 nm. For Fusarium species, the wells of a microtiter plate were filled with 90 µL of the fungal spore suspension in half-strength potato dextrose broth at a concentration of 2000–3000 spores in 100 µL and 10 µL of aqueous solutions of peptides at final concentrations of 10–300 µM. After 38 h of incubation, the absorbance was recorded at 595 nm on a FilterMax F5 Multi-Mode Microplate Reader (Molecular Devices, San Jose, CA, USA). Antimicrobial activity is expressed in IC50 values, which show the concentration necessary for 50% inhibition of the pathogen growth; this was determined from a graph showing the activity dependence on peptide concentration.
(§3) For each pathogen, experiments on the peptide antimicrobial activity evaluation were carried out in triplicate per treatment. Mean values, standard deviations (SD), and the significance of differences (p ≤ 0.05) of the means between treatments and controls (t-test for independent variables) were determined using STATISTICA v. 6.1 software (StatSoft Inc., Tulsa, OK, USA).

[2] = test system: Candida albicans VKM Y-2994; format: cell-based
Protocol: as §1, §2, §3

[3] = test system: Cryptococcus neoformans VKM Y-2755; format: cell-based
Protocol: as §1, §2, §3

[4] = test system: Pseudomonas savastanoi pv. savastanoi VKM B-1546; format: cell-based; settings: peptide 10–300 µM, 30 °C, 24 h, absorbance 594 nm; from activity vs concentration graph; mean ± SD; read-out: IC50, μM Ps. savastanoi
Protocol: as §1, §2, §3

[5] = test system: Cr. neoformans cells; assay: Propidium iodide staining, fluorescence microscopy; format: cell-based, Cryptococcus neoformans; settings: peptide 300 µM, 30 °C, 1 h, 0.03 mM PI 15 min
Protocol: (§4) Their ability to disturb the integrity of pathogen membranes was assayed by staining with propidium iodide of C. albicans and Cr. neoformans cells preliminarily incubated with the peptides. The results were visualized by fluorescent microscopy and quantified by flow cytometry (Figure 5, Figure 6 and Figure 7).
(§5) Staining of yeast cells with propidium iodide in the presence of the γ-core peptides was carried out according to the protocol described earlier. C. albicans or Cr. neoformans cells (24 h culture in YPD-P at a cell concentration of 2 × 10^8/mL) were incubated with the peptide at a concentration of 300 µM at 30 °C for 1 h. After incubation, 1 mL of the cells was stained with 0.03 mM propidium iodide (Sigma, St. Louis, MO, USA). The staining proceeded for 15 min at 30 °C. The fluorescence was recorded on an AXIO Imager A1 fluorescence microscope (ZEISS, Göttingen, Germany) using a Zeiss filter set 56 HE.

[6] = test system: Pectobacterium carotovorum subsp. carotovorum VKM B-1247; settings: 300 µM peptide; modified YPD-P medium, 30 °C, 24 h, absorbance 594 nm; vs control without peptide; triplicate, mean
Protocol: All cultures were obtained from the All-Russian Collection of Microorganisms (VKM).
Mean values, standard deviations (SD), and the significance of differences (p ≤ 0.05) of the means between treatments and controls (t-test for independent variables) were determined using […] v. 6.1 software (StatSoft Inc., Tulsa, OK, USA).

[7] = test system: Cr. neoformans cells; assay: Propidium iodide penetration, flow cytometry; format: cell-based, Cryptococcus neoformans; settings: 28 °C, 2 h
Protocol: as §4
For flow cytometry experiments with Cr. neoformans, the yeasts were grown on the YPD medium at 28 °C for 48 h. After that, the cells were centrifuged at 12,000× g for 3 min, washed with MiliQ water and incubated with the peptides dissolved in water at a concentration of 300 µM at 28 °C for 2 h. The cells were stained with propidium iodide by direct addition of the dye to the incubation medium (final concentration of 2 µg/mL) and measured on a NovoCyte Flow cytometer (Agilent, Santa Clara, CA, USA) using the channel FL2 (488 nm excitation and 585 nm emission). The sample without peptides was used as a control.

[8] = test system: C. albicans cells; assay: Propidium iodide staining, fluorescence microscopy; format: cell-based, Candida albicans; settings: peptide 300 µM, 30 °C, 1 h, 0.03 mM PI 15 min
Protocol: as §4, §5

[9] = test system: Clavibacter michiganensis subsp. michiganensis VKM Ac-1403; assay: Growth inhibition of Cl. michiganensis in microtiter plates; format: cell-based; settings: inhibition curves (Figure 4); highest tested concentration of 300 µM
Protocol: as §1
The antimicrobial activity of synthetic peptides was tested against the yeasts Candida albicans VKM Y-2994 and Cryptococcus neoformans VKM Y-2755, the bacteria Pseudomonas savastanoi pv. savastanoi VKM B-1546, Pectobacterium carotovorum subsp. carotovorum VKM B-1247 and Clavibacter michiganensis subsp. michiganensis VKM Ac-1403, and four Fusarium species: F. culmorum VKM F-2303, F. oxysporum VKM F-137, F. solani VKM F-142 and F. verticillioides VKM F-670. All cultures were obtained from the All-Russian Collection of Microorganisms (VKM). […] The antimicrobial activity of the peptides was measured in immunoassay microtiter plates according to the protocol of Broekaert et al.. […] The plates were incubated at 30 °C for 24 h, and the absorbance of the suspension was measured on an Efos 9305 spectrophotometer (Sapphire, Moscow, Russia) at 594 nm. […] After 38 h of incubation, the absorbance was recorded at 595 nm on a FilterMax F5 Multi-Mode Microplate Reader (Molecular Devices, San Jose, CA, USA). […]
For each pathogen, experiments on the peptide antimicrobial activity evaluation were carried out in triplicate per treatment. Mean values, standard deviations (SD), and the significance of differences (p ≤ 0.05) of the means between treatments and controls (t-test for independent variables) were determined using STATISTICA v. […]

[10] = test system: F. culmorum VKM F-2303; assay: Growth inhibition of F. culmorum in microtiter plates; format: cell-based, Fusarium culmorum; settings: 300 µM peptide; spores in half-strength potato dextrose broth, 38 h, absorbance 595 nm; vs control without peptide; triplicate, mean
Protocol: as §1
(§6) The antimicrobial activity of synthetic peptides was tested against the yeasts Candida albicans VKM Y-2994 and Cryptococcus neoformans VKM Y-2755, the bacteria Pseudomonas savastanoi pv. savastanoi VKM B-1546, Pectobacterium carotovorum subsp. carotovorum VKM B-1247 and Clavibacter michiganensis subsp. michiganensis VKM Ac-1403, and four Fusarium species: F. culmorum VKM F-2303, F. oxysporum VKM F-137, F. solani VKM F-142 and F. verticillioides VKM F-670. All cultures were obtained from the All-Russian Collection of Microorganisms (VKM). […] The antimicrobial activity of the peptides was measured in immunoassay microtiter plates according to the protocol of Broekaert et al.. […]

[11] = test system: F. oxysporum VKM F-137; assay: Growth inhibition of F. oxysporum in microtiter plates; format: cell-based, Fusarium oxysporum; settings: 300 µM peptide; spores in half-strength potato dextrose broth, 38 h, absorbance 595 nm; vs control without peptide; triplicate, mean
Protocol: as §1, §6

[12] = test system: F. solani VKM F-142; assay: Growth inhibition of F. solani in microtiter plates; format: cell-based, Fusarium solani; settings: 300 µM peptide; spores in half-strength potato dextrose broth, 38 h, absorbance 595 nm; vs control without peptide; triplicate, mean
Protocol: as §1, §6

[13] = inhibition curves (Figure 4), highest tested concentration (300 µM)

Compound | Maximum inhibition of F. verticillioides at 150 µM ([1]; inhibition curves (Figure 4), peptide 150 µM) | IC50 ([1]; peptide 10–300 µM, 38 h, absorbance 595 nm, from activity vs concentration graph, mean ± SD) | Inhibition of C. albicans at the highest tested concentration [2, 13] | IC50 ([2]; peptide 10–300 µM, 30 °C, 24 h, absorbance 594 nm, from activity vs concentration graph, mean ± SD) | Inhibition of Cr. neoformans at the highest tested concentration [3, 13] | IC50 ([3]; peptide 10–300 µM, 30 °C, 24 h, absorbance 594 nm, from activity vs concentration graph, mean ± SD, read-out: IC50, μM Cr. neoformans) | IC50 [4] | Membrane permeabilization of Cr. neoformans cells (PI staining) [5] | Pathogen inhibition, % (P. carotovorum) [6] | Penetration of propidium iodide (PI) into Cr. neoformans cells ([7]; peptide 300 µM in water, PI 2 µg/mL, FL2 (488/585 nm)) | Number of Cr. neoformans cells in flow cytometry ([7]; peptide 300 µM) | Membrane permeabilization of C. albicans cells (PI staining) [8] | Inhibition of Cl. michiganensis at the highest tested concentration [9] | Pathogen inhibition, % (F. culmorum) [10] | Pathogen inhibition, % (F. verticillioides) ([1]; 300 µM peptide, spores in half-strength potato dextrose broth, 38 h, absorbance 595 nm, vs control without peptide, triplicate, mean) | Pathogen inhibition, % (F. oxysporum) [11] | Pathogen inhibition, % (F. solani) [12]
C[C@H](NC(=O)[C@H](CCCNC(=N)N)NC(=O)CNC(=O)[C@@H](NC(=O)[C@H](Cc1ccc(O)cc1)NC(=O)[C@@H]1CCCN1C(=O)[C@H](CCCNC(=N)N)NC(=O)CNC(=O)[C@H](CCCNC(=N)N)NC(=O)[C@H](C)NC(=O)[C@@H]1CCCN1C(=O)[C@@H](N)CS)[C@@H](C)O)C(=O)N[C@@H](CS)C(=O)O [DEFL4-37_90-102] (H-CPARGRPYTGRAC-OH; N-terminus and C-terminus assumed) | about 35% | > 100 µM | about 35% | > 100 µM | 100% | > 100 µM | > 100 µM | induced membrane permeabilization | 36% | 68.48% | reduction in the number of Cr. neoformans cells | induced membrane permeabilization |  |  |  |  | 
CC(C)C[C@H](NC(=O)[C@H](CCCNC(=N)N)NC(=O)[C@H](C)NC(=O)[C@H](CS)NC(=O)[C@H](CS)NC(=O)CNC(=O)[C@@H]1CCCN1)C(=O)N[C@@H](CCCNC(=N)N)C(=O)N[C@@H](C)C(=O)N[C@@H](CCC(N)=O)C(=O)N[C@@H](CCCNC(=N)N)C(=O)N[C@@H](C)C(=O)N[C@@H](CS)C(=O)O [TkLTP2.25_50-62] (H-PGCCARLRAQRAC-OH; N-terminus and C-terminus assumed) |  |  |  |  |  |  |  | induced membrane permeabilization |  |  |  | induced membrane permeabilization | 95% |  |  |  | 
CC[C@H](C)[C@H](NC(=O)[C@@H](NC(=O)[C@H](Cc1c[nH]cn1)NC(=O)[C@@H](NC(=O)[C@H](C)NC(=O)[C@@H](NC(=O)[C@H](CS)NC(=O)[C@H](CS)NC(=O)CNC(=O)[C@@H](N)CO)[C@@H](C)O)C(C)C)[C@@H](C)O)C(=O)NCC(=O)N[C@@H](CCCCN)C(=O)N[C@@H](CCC(N)=O)C(=O)N[C@@H](CO)C(=O)N1CCC[C@H]1C(=O)N[C@@H](CCCCN)C(=O)N[C@@H](CS)C(=O)O [TkLTPd5.6_59-75] (H-SGCCTAVHTIGKQSPKC-OH; N-terminus and C-terminus assumed) |  |  |  |  |  |  |  |  |  |  |  |  |  | inactive | inactive | inactive | inactive
